Measurements published in patent publication US12102633B2, “Spirolactone compounds” (Quixgen, Inc., priority 2017, dated 2024).
pIC50: −log10 of the molar value.

Assays:
Human sebocytes = assay: Cellular levels of malonyl-CoA in human sebocytes; assay type: cell-based; settings: 0.5 h, 30 min incubation, read-out: Malonyl-CoA in Sebo IC50
Protocol: (§1) Shimadzu LC system was used for sample analysis consisting of system controller (Shimadzu CBM-20A), autosampler (Shimadzu SIL-20A), pump A and B (Shimadzu LC-20AD), column oven (Shimadzu CTO-20A), and analytical column (Phenomenex Gemini 5u C18 11A, 100×2 mm). LC was running at 200 μL/min in the binary gradient mode with mobile phase A (5 mM Ammonium Acetate and 5 mM DMBA in water (1,3-Dimethylbutylamine)) and B (methanol). The samples were analyzed on an AB Sciex QTrap4000 LC-MS/MS triple quadrupole mass spectrometer (Applied Biosystems). Malonyl-CoA and malonyl-13C-CoA were monitored in positive ion mode following MRM transitions at 854.2/347.1 and 855.1/246.1, respectively. The product and internal standard were coeluted to the mass spectrometer in 3 s with 50% H2O, 25% MeCN, 25% acetone, and 5 mM ammonium acetate. Ion chromatograms were integrated using the Analyst 1.5.2 software. Peak area ratios were compared against a standard curve and final cellular concentration of malonyl-CoA or production rate of malonyl-13C-CoA was calculated as pmoles/mg protein per minute.
Human sebocytes (Celprogen) were grown in growth media (DMEM with 4.5 g/L glucose, 0.584 g/L L-glutamine (Sigma), 100 units/mL of penicillin and 100 μg/mL of streptomycin (Gibco), 10% fetal bovine serum (Gibco)) at 37° C. in a humidified water jacketed incubator (Forma Scientific) supplemented with 5% CO2 till 100% confluency. Cells grown in 152 cm^2 cell culture dish (Corning) were trypsinized with 0.25% trypsin-EDTA (Gibco), centrifuged at 800 rpm for 10 min (Eppendorf) and resuspended in 4 mL growth media. To 1 μL serial diluted compounds in DMSO, 99 μL cells (around 0.5 million cells suspended in growth media) were added and mixed well followed by incubation in cell culture incubator for 30 min. Cells were then centrifuged at 800 rpm for 10 min and 70 μL 10% trichloroacetic acid was added to each well to lyse the cells and precipitate proteins. Cellular levels of malonyl-CoA were quantitated by LC-MS/MS.

human ACC1 = target: T1, human ACC1 (Homo sapiens, UniProt Q13085); assay: Human ACC enzymatic activity assay (ACC1); assay type: biochemical; settings: purified human ACC1; read-out: EA-CoA hACC 1 IC50
T1 construct: purchased BPS Bioscience
Protocol: (§2) Human ACC enzymatic activity assays were performed by using purified human ACC1 and ACC2 proteins (BPS Bioscience). ACC1 and ACC2 proteins were diluted in 24.5 μL reaction buffer (50 mM HEPES pH 7.5, 10 mM MgCl2, 2.0 mM DTT, 4.0 mM ATP, 15 mM ^13C-NaHCO3, 0.75 mg/mL BSA, 0.5 mM sodium citrate), and final concentrations of ACC1 and ACC2 were 0.4 μg/mL and 0.48 μg/mL. For each reaction, 0.5 μL of serial diluted compounds were prepared in DMSO in duplicate or triplicate and mixed with the above 24.5 μL reaction mixtures with ACC proteins at 37° C. for 10 min. Meanwhile, 25 μL of reaction buffer plus acetyl-CoA (final concentration: 5 μM) was prepared freshly and added to the above 25 μL mixture to initiate the reaction. After incubation at 37° C. for 1-2 hours, 100 μl ice-cold 10% TCA with malonyl-^13C3-CoA (final concentration: 40 nM, Sigma-Aldrich) was added to terminate the reaction. For LC-MS/MS analysis, 300 μL quenching buffer (acetonitrile:methanol=1:1, 20 μM carbutamide as internal standard) was added to each tube and mixed well. Samples were then centrifuged at 14,000 rpm for 10 min (Eppendorf) and supernatants were loaded onto LC-MS/MS for quantitation of […] (Gao et al., Journal of chromatography B, Analytical technologies in the biomedical and life sciences 853, 303-313 (2007)).
as §1

human ACC2 = target: T2, human ACC2 (Homo sapiens, UniProt O00763); assay: Human ACC enzymatic activity assay (ACC2); assay type: biochemical; settings: purified human ACC2; read-out: EA-CoA hACC 2 IC50
T2 construct: purchased BPS Bioscience
T2 sequence (O00763 whole entry): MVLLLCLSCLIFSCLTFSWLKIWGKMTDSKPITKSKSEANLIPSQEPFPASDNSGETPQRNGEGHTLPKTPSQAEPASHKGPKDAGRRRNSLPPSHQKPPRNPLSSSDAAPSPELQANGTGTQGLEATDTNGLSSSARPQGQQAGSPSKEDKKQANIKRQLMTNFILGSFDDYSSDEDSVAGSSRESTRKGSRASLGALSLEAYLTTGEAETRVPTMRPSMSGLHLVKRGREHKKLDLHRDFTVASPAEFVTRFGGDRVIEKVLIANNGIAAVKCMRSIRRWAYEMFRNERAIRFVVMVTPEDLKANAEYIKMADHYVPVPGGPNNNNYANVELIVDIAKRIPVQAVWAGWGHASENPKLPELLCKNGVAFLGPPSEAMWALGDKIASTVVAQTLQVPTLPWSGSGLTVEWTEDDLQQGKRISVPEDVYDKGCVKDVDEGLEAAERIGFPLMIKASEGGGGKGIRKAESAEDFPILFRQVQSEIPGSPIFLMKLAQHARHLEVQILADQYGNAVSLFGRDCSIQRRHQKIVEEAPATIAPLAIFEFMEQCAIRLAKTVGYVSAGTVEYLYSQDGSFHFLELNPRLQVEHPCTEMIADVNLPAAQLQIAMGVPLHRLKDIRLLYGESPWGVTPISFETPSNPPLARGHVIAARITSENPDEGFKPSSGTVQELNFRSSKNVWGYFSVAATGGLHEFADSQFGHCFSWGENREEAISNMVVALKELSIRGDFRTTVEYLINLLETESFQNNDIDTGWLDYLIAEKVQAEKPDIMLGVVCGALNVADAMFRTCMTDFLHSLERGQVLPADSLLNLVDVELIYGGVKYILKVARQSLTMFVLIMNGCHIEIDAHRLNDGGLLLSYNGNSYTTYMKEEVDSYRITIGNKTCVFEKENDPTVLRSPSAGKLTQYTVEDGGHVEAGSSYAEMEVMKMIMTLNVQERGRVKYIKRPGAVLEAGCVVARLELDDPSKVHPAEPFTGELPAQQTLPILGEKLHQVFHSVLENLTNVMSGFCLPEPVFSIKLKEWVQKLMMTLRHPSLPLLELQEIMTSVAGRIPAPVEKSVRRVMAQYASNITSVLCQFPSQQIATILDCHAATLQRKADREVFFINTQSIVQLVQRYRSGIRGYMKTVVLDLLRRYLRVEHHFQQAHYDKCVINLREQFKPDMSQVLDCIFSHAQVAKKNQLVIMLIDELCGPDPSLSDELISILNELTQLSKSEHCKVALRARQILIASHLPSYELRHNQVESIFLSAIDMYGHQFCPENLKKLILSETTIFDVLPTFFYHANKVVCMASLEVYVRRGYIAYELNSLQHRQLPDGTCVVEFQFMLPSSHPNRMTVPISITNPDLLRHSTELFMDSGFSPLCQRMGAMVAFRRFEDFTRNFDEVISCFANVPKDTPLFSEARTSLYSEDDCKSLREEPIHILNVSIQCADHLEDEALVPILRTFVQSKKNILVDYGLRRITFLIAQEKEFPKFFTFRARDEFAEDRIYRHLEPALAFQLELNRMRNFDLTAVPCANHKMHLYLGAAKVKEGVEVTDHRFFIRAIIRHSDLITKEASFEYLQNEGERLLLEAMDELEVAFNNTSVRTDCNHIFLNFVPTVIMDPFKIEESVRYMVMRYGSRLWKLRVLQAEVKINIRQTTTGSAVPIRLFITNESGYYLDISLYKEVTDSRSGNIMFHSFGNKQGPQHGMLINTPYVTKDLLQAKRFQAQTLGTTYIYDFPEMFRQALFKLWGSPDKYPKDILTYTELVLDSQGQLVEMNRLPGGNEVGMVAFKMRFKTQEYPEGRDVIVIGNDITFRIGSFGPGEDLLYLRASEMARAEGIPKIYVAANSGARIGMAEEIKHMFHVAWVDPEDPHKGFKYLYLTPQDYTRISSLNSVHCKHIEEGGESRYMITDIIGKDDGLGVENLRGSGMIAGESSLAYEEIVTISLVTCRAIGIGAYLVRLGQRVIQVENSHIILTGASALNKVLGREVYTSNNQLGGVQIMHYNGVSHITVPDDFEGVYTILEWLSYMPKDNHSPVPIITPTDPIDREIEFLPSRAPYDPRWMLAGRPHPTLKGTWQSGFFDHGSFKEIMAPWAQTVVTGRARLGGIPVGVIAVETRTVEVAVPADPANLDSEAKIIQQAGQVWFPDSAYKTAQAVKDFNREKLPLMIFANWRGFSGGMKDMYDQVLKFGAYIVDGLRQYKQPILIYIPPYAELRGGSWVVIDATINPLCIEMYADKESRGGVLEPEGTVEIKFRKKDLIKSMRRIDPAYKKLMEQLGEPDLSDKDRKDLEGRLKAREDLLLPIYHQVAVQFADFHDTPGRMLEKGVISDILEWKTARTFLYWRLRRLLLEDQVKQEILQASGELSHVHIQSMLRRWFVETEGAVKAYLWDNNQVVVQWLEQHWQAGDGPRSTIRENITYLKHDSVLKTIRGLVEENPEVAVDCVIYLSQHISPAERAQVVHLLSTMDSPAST
Protocol: as §2, §1

[1] = tested on: T3, Mouse ACC (ACC protein purified from liver); assay: Mouse ACC enzymatic activity assay; assay type: biochemical; settings: read-out: EA-CoA mACC IC50
T3 construct: ACC protein was purified by taking advantage of the biotinylation in the carboxylase domain
Protocol: ACC protein was purified by taking advantage of the biotinylation in the carboxylase domain. Male C57BL/6J mice (Jackson Laboratory) at 8-12 weeks of age were euthanized by using CO2 inhalation method and liver was immediately frozen on dry ice. To 100 mg liver was added 1 mL ice-cold tissue lysis buffer (20 mM Tris-HCl pH 7.5, 150 mM NaCl, 1 mM Na2EDTA, 1 mM EGTA, 1% Triton, 2.5 mM sodium pyrophosphate, 1 mM 3-glycerophosphate, 1 mM Na3VO4, 1 μg/mL leupeptin, 1 tablet of protease inhibitor cocktail (Roche) per 10 mL lysis buffer) followed by homogenization on ice with Power Gen 125 homogenizer (Fisher Scientific). After 30 min incubation on ice, tissue lysate was passed through a 10 mL syringe with 18½ G needle for 10 times to shear DNA. The lysate was then subject to 17.5%-35% saturated ammonium sulfate precipitation by adding 880 mg ammonium sulfate powder (Sigma) to 10 mL liver lysate in 10 min with stirring on ice. Sample was centrifuged at 14,000 rpm (Eppendorf) at 4° C. for 10 min and supernatant was saved for further precipitation by adding 880 mg ammonium sulfate powder to 10 ml supernatant in 10 min with stirring on ice. Sample was centrifuged at 14,000 rpm at 4° C. for 10 min. Supernatant was discarded and pellet was dissolved in 10 mL sample buffer (100 mM Tris-HCl, pH 7.5, 1 mM EDTA, 0.1 mM DTT, 0.5 M NaCl, and 5% glycerol). The sample was then added with 1 mL of Strep Mag beads slurry (Genscript) and rotated at 4° C. for 1 hour. Supernatant was discarded and beads were washed with sample buffer for 3 times. Protein was then eluted by adding 10 mL of 2 mM biotin (Promega) prepared in sample buffer. The eluate was then dialyzed at 4° C. for 1 hour by using Slide-A-Lyzer™ Dialysis Cassettes 10K MWCO (Thermo Fisher Scientific) against 3 changes of 200 mL dialysis buffer (50 mM HEPES, pH 7.5, 0.1 mM DTT, 1.0 mM EDTA, and 10% glycerol). Total protein concentration was then quantitated by using BCA protein assay kit (Pierce).
For ACC enzymatic activity assay, 1 μL serial diluted compounds prepared in DMSO in duplicate were mixed with 8 μL dialyzed sample at 37° C. for 10 min. Ninety one L of reaction buffer (50 mM HEPES pH 7.5, 10 mM MgCl2, 2.0 mM DTT, 0.5 mM acetyl-CoA, 4.0 mM ATP, 15 mM ^13C-NaHCO3, 0.75 mg/mL BSA, 0.5 mM sodium citrate) was added to the tube and mixed thoroughly. After incubation at 37° C. for 1 hour, 300 μl ice-cold quenching buffer (acetonitrile:methanol=1:1, 20 μM carbutamide as internal standard) was added to each tube and mixed well to terminate the reaction. Samples were centrifuged at 14,000 rpm for 10 min (Eppendorf) and supernatant was loaded onto LC-MS/MS for quantitation of malonyl-^13C-CoA (Gao et al., Journal of chromatography B, Analytical technologies in the biomedical and life sciences 853, 303-313 (2007)).
as §1

SMILES | pIC50 (Human sebocytes) | also measured
CC(C)c1ccc2c(c1)C(=O)OC1(CCN(C(=O)c3ccc4cn[nH]c4c3)CC1)C2 [Example 10, 1′-(1H-indazole-6-carbonyl)-7-isopropylspiro-[isochroman-3,4′-piperidin]-1-one] | 6.17 | –
Cc1nc2ccc(C(=O)N3CCC4(CC3)Cc3ccc(C(C)C)cc3C(=O)O4)cc2[nH]1 [Example 7, 7-isopropyl-1′-(2-methyl-1H-benzo[d]imidazole-6-carbonyl)spiro[isochroman-3,4′-piperidin]-1-one] | 5.21 | –
CCc1nc2ccc(C(=O)N3CCC4(CC3)Cc3ccc(C(C)C)cc3C(=O)O4)cc2[nH]1 [Example 12, 1′-(2-ethyl-1H-benzo[d]imidazole-6-carbonyl)-7-isopropylspiro[isochroman-3,4′-piperidin]-1-one] | 5.46 | –
COc1cc(C(=O)N2CCC3(CC2)Cc2ccc(-c4cncc(C(=O)O)c4)cc2C(=O)O3)cc2c1c(C)cn2C1CC1 [Example 22, 5-(1′-(1-cyclopropyl-4-methoxy-3-methyl-1H-indole-6-carbonyl)-1-oxospiro[isochroman-3,4′-piperidin]-7-yl)nicotinic acid] | – | pIC50 (human ACC1): 7.62; pIC50 (human ACC2): 7.95
CC(C)c1ccc2c(c1)C(=O)OC1(CCN(C(=O)c3ccc4[nH]c(=O)n(C)c4c3)CC1)C2 [Example 13, 7-isopropyl-1′-(3-methyl-2-oxo-2,3-dihydro-1H-benzo [d]imidazole-5-carbonyl)spiro[isochroman-3,4′-piperidin]-1-one] | 5.61 | –
CC(C)c1ccc2c(c1)C(=O)OC1(CCN(C(=O)c3ccc4[nH]ncc4c3)CC1)C2 [Example 8, 1′-(1H-indazole-5-carbonyl)-7-isopropylspiro[isochroman-3,4′-piperidin]-1-one] | 6.35 | –
COc1ccc2ncc(C(=O)N3CCC4(CC3)Cc3ccc(C(C)C)cc3C(=O)O4)cc2c1 [Example 11, 7-isopropyl-1′-(6-methoxyquinoline-3-carbonyl)spiro [isochroman-3,4′-piperidin]-1-one] | 6.85 | –
COC(=O)c1cncc(-c2ccc3c(c2)C(=O)OC2(CCN(C(=O)c4cc(OC)c5cccc(C6CC6)c5n4)CC2)C3)c1 [Example 19, methyl 5-(1′-(8-cyclopropyl-4-methoxyquinoline-2-carbonyl)-1-oxospiro[isochroman-3,4′-piperidin]-7-yl)nicotinate] | – | pIC50 (human ACC1): 5.95; pIC50 (human ACC2): 6.13
COc1cc(C(=O)N2CCC3(CC2)Cc2ccc(Nc4ccnn4C)cc2C(=O)O3)cc2c(OC)cccc12 [Example 5, 1′-(4,8-dimethoxy-2-naphthoyl)-7-((1-methyl-1H-pyrazol-5-yl)amino)spiro[isochroman-3,4′-piperidin]-1-one] | – | pIC50 [1]: 9.43
CC(C)c1ccc2c(c1)C(=O)OC1(CCN(C(=O)c3cc4ncccc4[nH]3)CC1)C2 [Example 9, 7-isopropyl-1′-(1H-pyrrolo[3,2-b]pyridine-2-carbonyl)-spiro[isochroman-3,4′-piperidin]-1-one] | 6.15 | –
COC(=O)c1cncc(-c2ccc3c(c2)C(=O)OC2(CCN(C(=O)c4cc(OC)c5c(C)cn(C6CC6)c5c4)CC2)C3)c1 [Example 21, methyl 5-(1′-(1-cyclopropyl-4-methoxy-3-methyl-1H-indole-6-carbonyl)-1-oxospiro[isochroman-3,4′-piperidin]-7-yl)nicotinate] | – | pIC50 (human ACC1): 6.53; pIC50 (human ACC2): 6.66
